Assay results reported in patent US20260184675A1, “CHIRAL ISOMERIC SULFITE COMPOUND AND APPLICATION THEREOF” (Chengdu Hanova BioSciences Co., Ltd, priority 2024, published 2026).

Experiments:
Magnaporthe grisea = format: cell-based; details: 100 ppm; for Average antifungal rate (%) / Antifungal rate of Magnaporthe grisea (%), Replicate 1 / Antifungal rate of Magnaporthe grisea (%), Replicate 2 / Antifungal rate of Magnaporthe grisea (%), Replicate 3: 96-well plate; for Average antifungal rate (%): average of 3 replicates
eggs of Aleyrodidae = test: Effect on hatching of eggs of Aleyrodidae, leaf disc method; format: in vivo; details: 10 ppm; for Hatching rate (%), Replicate 1 / Hatching rate (%), Replicate 2 / Hatching rate (%), Replicate 3 / Number of hatched larvae 5 days after insecticide delivery, Replicate 1 / Number of hatched larvae 5 days after insecticide delivery, Replicate 2 / Number of hatched larvae 5 days after insecticide delivery, Replicate 3: Aleyrodidae eggs; for Hatching rate (%), Replicate 1 / Hatching rate (%), Replicate 2 / Hatching rate (%), Replicate 3: 5 days after delivery; for Number of hatched larvae 5 days after insecticide delivery, Replicate 1 / Number of hatched larvae 5 days after insecticide delivery, Replicate 2 / Number of hatched larvae 5 days after insecticide delivery, Replicate 3: leaf disc
Description: (§1) • (1) Preparation of leaf discs containing eggs: 20 female adult mites of Tetranychus cinnabarinus were transferred onto leaf discs of Vicia faba with a diameter of 2.0 cm (with wetted filter paper at the bottom), then covered it with a lidded culture dish and cultivated under moisturizing conditions, the adult mites were removed within 36 hours and microscopic examination and counting were performed on leaf discs containing eggs. • (2) Investigation of egg population base: Before pesticide soaking, a microscopic examination was conducted on the egg basic number of each leaf disc, with 2 replicates set for each treatment. • (3) Pesticide soaking treatment: The leaf butterflies loaded with mite eggs were soaked in clear water and sulfite compounds for 10 seconds, respectively, then taken out and cultivated under moisturizing conditions. Each treatment should be repeated for no less than 3 times. • (4) Cultivation and observation: The […] were cultivated under normal conditions. Five days after insecticide delivery, the hatching status of mite eggs was investigated. • Note: The temperature and humidity conditions of the constant temperature and humidity incubator after the treatment should be controlled so as to avoid excessive temperature differences, which may cause generation and dripping of condensate water in the culture dish, resulting in abnormal death of eggs due to soaking in water; it is also necessary to ensure sufficient strong ambient light, without directing irradiating the leaves. • (5) Survey of Results: The experimental materials of each treatment group were regularly hydrated and moisturized, and the hatching of eggs was observed. On the 7th day after insecticide delivery, the number of hatched eggs for each treatment was recorded, and the survey of results was recorded in the original notebook. According to the experimental requirements and characteristics of agents, the survey time can be shortened or extended.
(§2) • 1) Surveying and recording the number of hatched eggs for each treatment. • 2) Photographing and recording whether there was any pesticide damage to the leaf discs of Vicia faba. • 3) Recording the developmental status of experimental mite eggs, behavior status of nymph mites, including abnormal phenomena such as delayed or stopped development of mite eggs, difficulty in breaking hull for nymph mites, or painful struggles after hatching, etc. • (6) Calculation method: Based on the survey data, the prevention and control effect of each treatment was calculated according to the following formula, and the calculation results were kept to two decimal places.
(§3) This test adopted the method in Test Example 1 of technical section, mainly used leaf disc method to explore the inhibitory effect on hatching of eggs of Aleyrodidae by compounds 1-(S,S), 1-(S,R), 1-(R,R), 1-(R,S), 1′-(S,S), 1′-(S,R), 1′-(R,R), 1′-(R,S), compound 1, compound 1′, S-10, R-10, S-10′, R-10′, compound 10, compound 10′, compound 19-(S,S), 19-(S,R), 19-(R,R), 19-(R,S), 19′-(S,S), 19′-(S,R), 19′-(R,R), 19′-(R,S), compound 19, and compound 19′. The concentration of all compounds was 10 ppm.

[1] = system: eggs of Tetranychus urticae; test: Effect on hatching of eggs of Tetranychus urticae, leaf disc method; format: in vivo; details: 5 ppm; for Hatching rate (%): 5 days after insecticide delivery
Description: as §1, §2
as §3, with “of Tetranychus urticae” for “of Aleyrodidae”, “was 5” for “was 10”

eggs of Thrips = test: Effect on hatching of eggs of Thrips, leaf disc method; format: in vivo; details: 100 ppm; for Hatching rate (%): 5 days after insecticide delivery
Description: as §1, §2
as §3, with “of Thrips” for “of Aleyrodidae”, “by” for “by compounds”, “was 100” for “was 10”

[2] = system: eggs of Harmonia axyridis; test: Effect on hatching of eggs of Harmonia axyridis, egg card immersion; format: in vivo; details: 100 ppm; for Number of hatched larvae 4 days after insecticide delivery, Replicate 1 / Number of hatched larvae 4 days after insecticide delivery, Replicate 2 / Number of hatched larvae 4 days after insecticide delivery, Replicate 3: Harmonia axyridis egg cards, immersed 30 seconds; for Hatching rate (%), Replicate 1 / Hatching rate (%), Replicate 2 / Hatching rate (%), Replicate 3: Harmonia axyridis eggs, 4 days after delivery
Text: The eggs of Harmonia axyridis cards (with approximately 20 eggs per card) were purchased from Henan Jiyuan Baiyun Industry Co., Ltd. in Henan Province. The number of eggs on the egg cards was counted as the basic number before insecticide delivery, and 5 cards were used as one treatment, with 3 replicates per treatment. After immersing the egg cards in a 100 ppm insecticide solution for 30 seconds, they were taken out and air dried, then cultivated under moisturizing conditions, and the […] were cultivated at 27° C. 4 days after insecticide delivery, the hatching status of eggs of Harmonia axyridis was investigated, and the prevention and control effect was calculated according to the following formula. [formula] [formula]

[3] = Replicate 1, listed as 1-(R, R)
[4] = Replicate 2, listed as 1-(R, R)
[5] = Replicate 3, listed as 1-(R, R)

CCC(COc1ccc(Cl)cc1Cl)OS(=O)OCCF (stereo not drawn) [Compound 19]
inhibitory rate against Magnaporthe grisea (in words) (Magnaporthe grisea): strong inhibitory rate
Average antifungal rate (%) (Magnaporthe grisea): 95.57%
Antifungal rate of Magnaporthe grisea (%), Replicate 1 (Magnaporthe grisea): 97.23%
Antifungal rate of Magnaporthe grisea (%), Replicate 2 (Magnaporthe grisea): 95.14%
Antifungal rate of Magnaporthe grisea (%), Replicate 3 (Magnaporthe grisea): 94.35%
inhibitory activity on the hatching of eggs of Aleyrodidae (in words) (eggs of Aleyrodidae): strong inhibitory activities
Hatching rate (%), Replicate 1 (eggs of Aleyrodidae): 0.00%
Hatching rate (%), Replicate 2 (eggs of Aleyrodidae): 0.00%
Hatching rate (%), Replicate 3 (eggs of Aleyrodidae): 0.00%
Number of hatched larvae 5 days after insecticide delivery, Replicate 1 (eggs of Aleyrodidae): 0
Number of hatched larvae 5 days after insecticide delivery, Replicate 2 (eggs of Aleyrodidae): 0
Number of hatched larvae 5 days after insecticide delivery, Replicate 3 (eggs of Aleyrodidae): 0
inhibitory activity on the hatching of eggs of Tetranychus urticae (in words) [1]: strong inhibitory activities
Hatching rate (%) ([1]; Replicate 1): 0.00%
Hatching rate (%) ([1]; Replicate 2): 1.09%
Number of hatched larvae 5 days after insecticide delivery ([1]; Replicate 1): 0
Number of hatched larvae 5 days after insecticide delivery ([1]; Replicate 2): 1
inhibitory activity on the hatching of eggs of Thrips (in words) (eggs of Thrips): strong inhibitory activities
Hatching rate (%) (eggs of Thrips; Replicate 1): 0.00%
Hatching rate (%) (eggs of Thrips; Replicate 2): 0.83%
Hatching rate (%) (eggs of Thrips; Replicate 3): 0.00%
Number of hatched larvae 5 days after insecticide delivery (eggs of Thrips; Replicate 1): 0
Number of hatched larvae 5 days after insecticide delivery (eggs of Thrips; Replicate 2): 1
Number of hatched larvae 5 days after insecticide delivery (eggs of Thrips; Replicate 3): 0
inhibitory activity on the hatching of eggs of Harmonia axyridis (in words) [2]: strong inhibitory activities
Number of hatched larvae 4 days after insecticide delivery, Replicate 1 [2]: 3
Number of hatched larvae 4 days after insecticide delivery, Replicate 2 [2]: 5
Number of hatched larvae 4 days after insecticide delivery, Replicate 3 [2]: 4
Hatching rate (%), Replicate 1 [2]: 3.26%
Hatching rate (%), Replicate 2 [2]: 4.45%
Hatching rate (%), Replicate 3 [2]: 4.17%

C[C@H](COS(=O)OCCF)Oc1ccc(Cl)cc1Cl (stereo partly drawn) [1-(R,R)]
inhibitory rate against Magnaporthe grisea (in words) (Magnaporthe grisea): strong inhibitory rate
Average antifungal rate (%) (Magnaporthe grisea): 98.96%
Antifungal rate of Magnaporthe grisea (%), Replicate 1 (Magnaporthe grisea): 99.41%
Antifungal rate of Magnaporthe grisea (%), Replicate 2 (Magnaporthe grisea): 99.12%
Antifungal rate of Magnaporthe grisea (%), Replicate 3 (Magnaporthe grisea): 98.34%
inhibitory activity on the hatching of eggs of Aleyrodidae (in words) (eggs of Aleyrodidae): strong inhibitory activities
Hatching rate (%), Replicate 1 (eggs of Aleyrodidae; listed as 1-(R, R)): 0.00%
Hatching rate (%), Replicate 2 (eggs of Aleyrodidae; listed as 1-(R, R)): 0.00%
Hatching rate (%), Replicate 3 (eggs of Aleyrodidae; listed as 1-(R, R)): 0.00%
Number of hatched larvae 5 days after insecticide delivery, Replicate 1 (eggs of Aleyrodidae; listed as 1-(R, R)): 0
Number of hatched larvae 5 days after insecticide delivery, Replicate 2 (eggs of Aleyrodidae; listed as 1-(R, R)): 0
Number of hatched larvae 5 days after insecticide delivery, Replicate 3 (eggs of Aleyrodidae; listed as 1-(R, R)): 0
inhibitory activity on the hatching of eggs of Tetranychus urticae (in words) [1]: strong inhibitory activities
Hatching rate (%) [1, 3]: 0.00%
Hatching rate (%) [1, 4]: 0.00%
Number of hatched larvae 5 days after insecticide delivery [1, 3]: 0
Number of hatched larvae 5 days after insecticide delivery [1, 4]: 0
inhibitory activity on the hatching of eggs of Thrips (in words) (eggs of Thrips): strong inhibitory activities
Hatching rate (%) (eggs of Thrips; [3]): 0.00%
Hatching rate (%) (eggs of Thrips; [4]): 0.00%
Hatching rate (%) (eggs of Thrips; [5]): 0.00%
Number of hatched larvae 5 days after insecticide delivery (eggs of Thrips; [3]): 0
Number of hatched larvae 5 days after insecticide delivery (eggs of Thrips; [4]): 0
Number of hatched larvae 5 days after insecticide delivery (eggs of Thrips; [5]): 0
inhibitory activity on the hatching of eggs of Harmonia axyridis (in words) [2]: strong inhibitory activities
Number of hatched larvae 4 days after insecticide delivery, Replicate 1 ([2]; listed as 1-(R, R)): 0
Number of hatched larvae 4 days after insecticide delivery, Replicate 2 ([2]; listed as 1-(R, R)): 0
Number of hatched larvae 4 days after insecticide delivery, Replicate 3 ([2]; listed as 1-(R, R)): 0
Hatching rate (%), Replicate 1 ([2]; listed as 1-(R, R)): 0.00%
Hatching rate (%), Replicate 2 ([2]; listed as 1-(R, R)): 0.00%
Hatching rate (%), Replicate 3 ([2]; listed as 1-(R, R)): 0.00%

CC(COS(=O)OCCF)Oc1ccc(Cl)cc1Cl (stereo not drawn) [Compound 1]
inhibitory rate against Magnaporthe grisea (in words) (Magnaporthe grisea): strong inhibitory rate
Average antifungal rate (%) (Magnaporthe grisea): 95.42%
Antifungal rate of Magnaporthe grisea (%), Replicate 1 (Magnaporthe grisea): 96.34%
Antifungal rate of Magnaporthe grisea (%), Replicate 2 (Magnaporthe grisea): 95.11%
Antifungal rate of Magnaporthe grisea (%), Replicate 3 (Magnaporthe grisea): 94.82%
inhibitory activity on the hatching of eggs of Aleyrodidae (in words) (eggs of Aleyrodidae): strong inhibitory activities
Hatching rate (%), Replicate 1 (eggs of Aleyrodidae): 0.00%
Hatching rate (%), Replicate 2 (eggs of Aleyrodidae): 1.50%
Hatching rate (%), Replicate 3 (eggs of Aleyrodidae): 0.00%
Number of hatched larvae 5 days after insecticide delivery, Replicate 1 (eggs of Aleyrodidae): 0
Number of hatched larvae 5 days after insecticide delivery, Replicate 2 (eggs of Aleyrodidae): 2
Number of hatched larvae 5 days after insecticide delivery, Replicate 3 (eggs of Aleyrodidae): 0
inhibitory activity on the hatching of eggs of Tetranychus urticae (in words) [1]: strong inhibitory activities
Hatching rate (%) ([1]; Replicate 1): 0.94%
Hatching rate (%) ([1]; Replicate 2): 1.30%
Number of hatched larvae 5 days after insecticide delivery ([1]; Replicate 1): 1
Number of hatched larvae 5 days after insecticide delivery ([1]; Replicate 2): 1
inhibitory activity on the hatching of eggs of Thrips (in words) (eggs of Thrips): strong inhibitory activities
Hatching rate (%) (eggs of Thrips; Replicate 1): 0.00%
Hatching rate (%) (eggs of Thrips; Replicate 2): 1.57%
Hatching rate (%) (eggs of Thrips; Replicate 3): 0.00%
Number of hatched larvae 5 days after insecticide delivery (eggs of Thrips; Replicate 1): 0
Number of hatched larvae 5 days after insecticide delivery (eggs of Thrips; Replicate 2): 2
Number of hatched larvae 5 days after insecticide delivery (eggs of Thrips; Replicate 3): 0
inhibitory activity on the hatching of eggs of Harmonia axyridis (in words) [2]: strong inhibitory activities
Number of hatched larvae 4 days after insecticide delivery, Replicate 1 [2]: 7
Number of hatched larvae 4 days after insecticide delivery, Replicate 2 [2]: 6
Number of hatched larvae 4 days after insecticide delivery, Replicate 3 [2]: 6
Hatching rate (%), Replicate 1 [2]: 6.25%
Hatching rate (%), Replicate 2 [2]: 6.38%
Hatching rate (%), Replicate 3 [2]: 6.06%
